Results as given in ChEMBL document CHEMBL3872281, “A one-pot laccase-catalysed synthesis of coumestan derivatives and their anticancer activity” (Bioorg Med Chem, 2017).

Tests used:
[1] = Cytotoxicity against human MCF7 cells assessed as cell growth inhibition after 48 hrs by SRB assay; format: functional; conditions: MCF7, 48 h; for CC50: read-out: LC50 (the source's name)
[2] = Cytotoxicity against human TK10 cells assessed as cell growth inhibition after 48 hrs by SRB assay; format: functional; conditions: TK-10, 48 h; for CC50: read-out: LC50 (the source's name)
UACC-62 = experiment: Potency index, ratio of etoposide TGI to compound TGI for human UACC62 cells; format: functional
[3] = Cytotoxicity against human UACC62 cells assessed as cell growth inhibition after 48 hrs by SRB assay; format: functional; conditions: UACC-62, 48 h
[4] = target: T1, Arachidonate 5-lipoxygenase (Sus scrofa) (UniProt K7GQZ4); experiment: Potency index, ratio of coumestrol IC50 to compound IC50 for 5-lipoxygenase in pig leukocytes; format: cell-based
T1 sequence (whole entry): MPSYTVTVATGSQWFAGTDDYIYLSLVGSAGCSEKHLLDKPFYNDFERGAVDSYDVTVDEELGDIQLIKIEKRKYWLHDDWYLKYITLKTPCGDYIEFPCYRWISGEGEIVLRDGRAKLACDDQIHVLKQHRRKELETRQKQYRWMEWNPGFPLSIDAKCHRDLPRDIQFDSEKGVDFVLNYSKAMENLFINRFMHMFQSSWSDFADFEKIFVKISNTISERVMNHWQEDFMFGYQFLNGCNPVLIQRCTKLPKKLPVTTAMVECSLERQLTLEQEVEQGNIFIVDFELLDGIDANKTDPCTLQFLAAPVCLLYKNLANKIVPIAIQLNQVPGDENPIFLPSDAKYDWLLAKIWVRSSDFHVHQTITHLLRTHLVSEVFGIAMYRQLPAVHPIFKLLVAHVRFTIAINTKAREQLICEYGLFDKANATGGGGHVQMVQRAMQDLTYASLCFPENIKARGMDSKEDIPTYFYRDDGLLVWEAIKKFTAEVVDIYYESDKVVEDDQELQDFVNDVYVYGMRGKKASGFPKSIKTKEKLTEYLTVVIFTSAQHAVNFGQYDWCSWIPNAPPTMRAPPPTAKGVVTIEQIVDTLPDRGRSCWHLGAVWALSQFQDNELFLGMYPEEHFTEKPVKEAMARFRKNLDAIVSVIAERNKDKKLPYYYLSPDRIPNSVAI

[5] = target: T2, Arachidonate 5-lipoxygenase (Sus scrofa, UniProt K7GQZ4); experiment: Inhibition of 5-lipoxygenase in pig leukocytes using arachidonic acid as substrate; format: cell-based
T2 sequence (K7GQZ4 whole entry): T1 sequence (whole entry)

Ratio IC50 [4] | IC50 [5] | SMILES | GI50 [1] | TGI [1] | CC50 [1] | GI50 [2] | TGI [2] | CC50 [2] | Ratio (UACC-62) | GI50 [3] | LC50 (concentration giving 50% net cell kill) [3] | TGI [3]
– | – | Cc1ccc2oc(=O)c3c4cc(O)c(O)c(C)c4oc3c2c1 | 7.96 µM | 78.2 µM | > 100 µM | 48.8 µM | > 100 µM | > 100 µM | 5 | 5.35 µM | 89.9 µM | 9.82 µM
– | – | COc1c(O)c(O)cc2c1oc1c3cc(C)ccc3oc(=O)c21 | 65.8 µM | > 100 µM | > 100 µM | 88.6 µM | > 100 µM | > 100 µM | – | 49.9 µM | > 100 µM | > 100 µM
– | – | O=c1cc(O)c2cc(Cl)ccc2o1 | 83.3 µM | > 100 µM | > 100 µM | > 100 µM | > 100 µM | > 100 µM | – | 88.7 µM | > 100 µM | > 100 µM
– | – | Cc1c(O)c(O)cc2c1oc1c3ccccc3oc(=O)c21 | 54.9 µM | > 100 µM | > 100 µM | > 100 µM | > 100 µM | > 100 µM | – | 55.6 µM | > 100 µM | > 100 µM
– | – | O=c1cc(O)c2ccccc2o1 [4-HYDROXYCOUMARINS] | 95.3 µM | > 100 µM | > 100 µM | > 100 µM | > 100 µM | > 100 µM | – | 83.6 µM | – | > 100 µM
– | – | Cc1cccc(O)c1O | 27.3 µM | 64.3 µM | > 100 µM | 38.1 µM | 75.8 µM | > 100 µM | – | 15.2 µM | – | 46.2 µM
– | – | COc1cccc(O)c1O [3-METHOXYCATECHOL] | 27.6 µM | 60.7 µM | 93.8 µM | 51.6 µM | 97 µM | > 100 µM | – | 23.6 µM | – | 50.3 µM
– | – | Cc1ccc2oc(=O)c3c4cc(O)c(O)cc4oc3c2c1 | 54.7 µM | > 100 µM | > 100 µM | 52 µM | > 100 µM | > 100 µM | – | 11.2 µM | 90.7 µM | 50.9 µM
– | – | COc1cc([C@@H]2c3cc4c(cc3[C@@H](O[C@@H]3O[C@@H]5CO[C@@H](C)O[C@H]5[C@H](O)[C@H]3O)[C@H]3COC(=O)[C@H]23)OCO4)cc(OC)c1O [ETOPOSIDE] | 0.56 µM | > 100 µM | > 100 µM | – | – | > 100 µM | – | 0.89 µM | – | –
– | – | O=c1oc2ccccc2c2oc3cc(O)c(O)cc3c12 | 39.4 µM | 77.3 µM | > 100 µM | 28.7 µM | 88.4 µM | > 100 µM | – | 33.3 µM | 90.6 µM | 61.9 µM
– | – | Oc1ccccc1O [CATECHOL] | 52.4 µM | > 100 µM | > 100 µM | 68 µM | > 100 µM | > 100 µM | – | 45 µM | – | > 100 µM
– | – | O=c1oc2ccccc2c2oc3c(F)c(O)c(O)cc3c12 | 53.1 µM | > 100 µM | > 100 µM | > 100 µM | > 100 µM | > 100 µM | – | 67.6 µM | > 100 µM | > 100 µM
40 | 2.5 µM | COc1cc(O)c2c(c1)oc(=O)c1c3cc(O)c(O)cc3oc21 [WEDELOLACTONE] | – | – | – | – | – | – | – | – | – | –
– | – | Cc1cc2oc(=O)c3c4cc(O)c(O)c(C)c4oc3c2cc1C | 87.3 µM | > 100 µM | > 100 µM | > 100 µM | > 100 µM | > 100 µM | – | 67.6 µM | > 100 µM | > 100 µM
– | – | Cc1cc2oc(=O)c3c4cc(O)c(O)c(F)c4oc3c2cc1C | 77.7 µM | > 100 µM | > 100 µM | > 100 µM | > 100 µM | > 100 µM | – | 91.8 µM | > 100 µM | > 100 µM
– | – | O=c1oc2ccc(Cl)cc2c2oc3c(F)c(O)c(O)cc3c12 | 70.3 µM | > 100 µM | > 100 µM | > 100 µM | > 100 µM | > 100 µM | – | 83.7 µM | > 100 µM | > 100 µM
– | – | Oc1cccc(F)c1O | 57.6 µM | > 100 µM | > 100 µM | 84.7 µM | > 100 µM | > 100 µM | – | 35.2 µM | – | 78.4 µM
– | – | Cc1cc2oc(=O)cc(O)c2cc1C | 82.3 µM | > 100 µM | > 100 µM | > 100 µM | > 100 µM | > 100 µM | – | 80.5 µM | > 100 µM | > 100 µM
– | – | Cc1c(O)c(O)cc2c1oc1c3cc(Cl)ccc3oc(=O)c21 | 63.1 µM | > 100 µM | > 100 µM | 58.1 µM | > 100 µM | > 100 µM | – | 39.7 µM | > 100 µM | 73.6 µM
– | – | Cc1cc2oc(=O)c3c4cc(O)c(O)cc4oc3c2cc1C | 46 µM | 86.3 µM | > 100 µM | 53.3 µM | > 100 µM | > 100 µM | – | 38.3 µM | > 100 µM | 80.1 µM
– | – | O=c1oc2ccc(Cl)cc2c2oc3cc(O)c(O)cc3c12 | 47.5 µM | 89.8 µM | > 100 µM | 53.4 µM | > 100 µM | > 100 µM | – | 36.3 µM | > 100 µM | 68.6 µM
– | – | COc1c(O)c(O)cc2c1oc1c3cc(C)c(C)cc3oc(=O)c21 | 29.5 µM | 95.4 µM | > 100 µM | 26.8 µM | 66.4 µM | > 100 µM | – | 18.1 µM | 75.3 µM | 46.7 µM
– | – | COc1c(O)c(O)cc2c1oc1c3ccccc3oc(=O)c21 | 87.3 µM | > 100 µM | > 100 µM | > 100 µM | > 100 µM | > 100 µM | – | 67.6 µM | > 100 µM | > 100 µM
– | – | Cc1ccc2oc(=O)cc(O)c2c1 | 84.4 µM | > 100 µM | > 100 µM | > 100 µM | > 100 µM | > 100 µM | – | 84.7 µM | – | > 100 µM
